# Tests used:
# [1] = Formaldehyde removing ability test (GC); conditions: 2.0% formaldehyde solution; for Area (mAU*min) 30 min: formaldehyde GC area after 30 min; for Area (mAU*min) 30 min / Area (mAU*min) 180 min: 3 molar equivalents, room temperature; for Area (mAU*min) 180 min: formaldehyde GC area after 180 min; for Area (mAU*min) Initial: formaldehyde GC area, initial state, 3 molar equivalents of compound
# [2] = Removal test of heavy metals of active ingredients (pig skin, ICP-MS): Cu; conditions: contaminated pig skin
# Protocol: (§1) (1) Preparation of Heavy Metal Contamination Sources and Pig Skin Samples
# (§2) A pig was slaughtered, flayed and the bristle was shaved. The pig skin was cut to prepare 5*5 cm size of skin samples respectively.
# (§3) The said skin samples were cleanly wiped with wet gauze, and then, added to 50 ml of methanol and extracted by shaking with ultrasonic for 60 min. 50 ml of methanol was further added and mixed. The pig skin samples were removed from the extracted solutions to prepare the test solutions.
# (§4) The test solutions were analyzed for heavy metal components using an inductively coupled plasma mass spectrometer (ICP-MS, Xseries™ 2, Thermo Fisher Scientific, UK).
# human skin = assay: Skin irritation test of active ingredient (patch method, CTFA guidelines); assay type: in vivo; set-up: key to Degree of irritation: 0–0.1 none, 0.11–0.3 weak, 0.31–0.5 moderate, ≥0.51 strong irritation; conditions: 20 people, patch 24 hours; for Test result(number of subject) (+): (+): Apparent reddening than periphery; for Test result(number of subject) (++): (++): More reddened and swollen than periphery; for Test result(number of subject) (±): (±): slightly reddish than the periphery; for Test result(number of subject) (−): (−): No erythema or particularly no symptoms
# Protocol: A total of 20 people (10 men and 10 women in their 20 s and 30 s) were tested for skin irritation using the patch method according to the guidelines of CTFA (The Cosmetic, Toiletry & Fragrance Association, Inc. Washington, D.C.).
# A filter paper disk was placed in an 8 mm diameter, 10 panels of pin chamber.
# After 24 hours, the pin chamber was removed, and skin conditions were visually observed.
# [Criteria for Skin Irritation]
# (−): No erythema or particularly no symptoms; (±): slightly reddish than the periphery; (+): Apparent reddening than periphery; (++): More reddened and swollen than periphery.
# [Grade for Skin Irritation]
# Degree of irritation 0-0.1: Grade I (unstimulated);
# Degree of irritation 0.11-0.3: Grade II (weakly stimulated);
# Degree of irritation 0.31-0.5: Grade III (moderately stimulated);
# Degree of irritation 0.51 or more: Grade IV (strongly stimulated)
# [3] = Removal test of heavy metals of active ingredients (pig skin, ICP-MS): Cd; conditions: contaminated pig skin
# Protocol: as §1, §2, §3, §4
# [4] = Removal test of heavy metals of active ingredients (pig skin, ICP-MS): Pb; conditions: contaminated pig skin
# Protocol: as §1, §2, §3, §4
SMILES,Area (mAU*min) 30 min [1] [mAU*min],Area (mAU*min) 180 min [1] [mAU*min],Area (mAU*min) Initial [1] [mAU*min],Removal of Heavy metals Cu (%) ([2]; 0.1 wt % aqueous solution),Removal of Heavy metals Cu (%) ([2]; 0.5 wt % aqueous solution),Removal of Heavy metals Cu (%) ([2]; 1.0 wt % aqueous solution),Degree of irritation (human skin; 0.1 wt %),Grade (human skin; 0.1 wt %),Test result(number of subject) (+) (human skin; 0.1 wt %),Test result(number of subject) (++) (human skin; 0.1 wt %),Test result(number of subject) (±) (human skin; 0.1 wt %),Test result(number of subject) (−) (human skin; 0.1 wt %),Degree of irritation (human skin; 0.5 wt %),Grade (human skin; 0.5 wt %),Test result(number of subject) (+) (human skin; 0.5 wt %),Test result(number of subject) (++) (human skin; 0.5 wt %),Test result(number of subject) (±) (human skin; 0.5 wt %),Test result(number of subject) (−) (human skin; 0.5 wt %),Degree of irritation (human skin; 1.0 wt %),Grade (human skin; 1.0 wt %),further results
"O=C(O)c1ccc(N(CCN(CCN(c2ccc(C(=O)O)o2)c2ccc(C(=O)O)o2)c2ccc(C(=O)O)o2)CCN(c2ccc(C(=O)O)o2)c2ccc(C(=O)O)o2)o1 [Embodiment 4, 5,5′,5″,5′″-(((ethane-1,2-diylbis((5-carboxyfuran-2-yl)azanediyl))bis(ethane-2,1-diyl))bis(azanetriyl))tetrakis(furan-2-carboxylic acid)]",0.173,0,0.305,92.5,96.2,97.2,0,I (Degree of irritation 0-0.1: Grade I (unstimulated)),0,0,0,20,0,I (Degree of irritation 0-0.1: Grade I (unstimulated)),0,0,0,20,0.05,I (Degree of irritation 0-0.1: Grade I (unstimulated)),Test result(number of subject) (+) (human skin; 1.0 wt %): 0; Test result(number of subject) (++) (human skin; 1.0 wt %): 0; Test result(number of subject) (±) (human skin; 1.0 wt %): 1; Test result(number of subject) (−) (human skin; 1.0 wt %): 19; Removal of Heavy metals Cd (%) ([3]; 0.1 wt % aqueous solution): 87.7%; Removal of Heavy metals Cd (%) ([3]; 0.5 wt % aqueous solution): 90.6%; Removal of Heavy metals Cd (%) ([3]; 1.0 wt % aqueous solution): 91.8%; Removal of Heavy metals Pb (%) ([4]; 0.1 wt % aqueous solution): 86.2%; Removal of Heavy metals Pb (%) ([4]; 0.5 wt % aqueous solution): 89.7%; Removal of Heavy metals Pb (%) ([4]; 1.0 wt % aqueous solution): 90.8%
"O=C(O)CN1CCN(CC(=O)O)CCN(CC(=O)O)CCN(CC(=O)O)CC1 [Embodiment 5, 2,2′,2″,2′″-(1,4,7,10-tetraazacyclododecane-1,4,7,10-tetrayl)tetraacetic acid]",0.179,0,0.305,94.6,96.8,97.2,0,I (Degree of irritation 0-0.1: Grade I (unstimulated)),0,0,0,20,0,I (Degree of irritation 0-0.1: Grade I (unstimulated)),0,0,0,20,0.05,I (Degree of irritation 0-0.1: Grade I (unstimulated)),Test result(number of subject) (+) (human skin; 1.0 wt %): 0; Test result(number of subject) (++) (human skin; 1.0 wt %): 0; Test result(number of subject) (±) (human skin; 1.0 wt %): 1; Test result(number of subject) (−) (human skin; 1.0 wt %): 19; Removal of Heavy metals Cd (%) ([3]; 0.1 wt % aqueous solution): 90.4%; Removal of Heavy metals Cd (%) ([3]; 0.5 wt % aqueous solution): 93.6%; Removal of Heavy metals Cd (%) ([3]; 1.0 wt % aqueous solution): 93.7%; Removal of Heavy metals Pb (%) ([4]; 0.1 wt % aqueous solution): 92.4%; Removal of Heavy metals Pb (%) ([4]; 0.5 wt % aqueous solution): 94.7%; Removal of Heavy metals Pb (%) ([4]; 1.0 wt % aqueous solution): 95.1%
"O=C(O)c1ccc(N2CCN(c3ccc(C(=O)O)cc3)CCN(c3ccc(C(=O)O)cc3)CCN(c3ccc(C(=O)O)cc3)CC2)cc1 [Embodiment 6, 4,4′,4″,4′″-(1,4,7,10-tetraazacyclododecane-1,4,7,10-tetrayl)tetrabenzoic acid]",0.183,0,0.305,94.1,96.3,97.0,0,I (Degree of irritation 0-0.1: Grade I (unstimulated)),0,0,0,20,0,I (Degree of irritation 0-0.1: Grade I (unstimulated)),0,0,0,20,0.05,I (Degree of irritation 0-0.1: Grade I (unstimulated)),Test result(number of subject) (+) (human skin; 1.0 wt %): 0; Test result(number of subject) (++) (human skin; 1.0 wt %): 0; Test result(number of subject) (±) (human skin; 1.0 wt %): 1; Test result(number of subject) (−) (human skin; 1.0 wt %): 19; Removal of Heavy metals Cd (%) ([3]; 0.1 wt % aqueous solution): 89.2%; Removal of Heavy metals Cd (%) ([3]; 0.5 wt % aqueous solution): 90.9%; Removal of Heavy metals Cd (%) ([3]; 1.0 wt % aqueous solution): 91.6%; Removal of Heavy metals Pb (%) ([4]; 0.1 wt % aqueous solution): 90.2%; Removal of Heavy metals Pb (%) ([4]; 0.5 wt % aqueous solution): 92.8%; Removal of Heavy metals Pb (%) ([4]; 1.0 wt % aqueous solution): 93.2%

# Source: patent US11090247B2, “Compositions for protecting the skin from heavy metals and formaldehyde” (FNG RESEARCH CO., LTD., priority 2016, dated 2021)
